Laboratory results taken from US10968190B2, “Processes for preparing oxathiazin-like compounds” (GEISTLICH PHARMA AG, priority 2014, dated 2021).
In brackets after ≈: the same amount, converted by molar mass. Like-named read-outs stand apart in the source and are kept apart here.

What was measured:
[1] = system: cancers identified herein; test: Administration to patients having cancers (Example 5); type: in vivo; conditions: Example 5, present tense
Protocol: Each of these compounds is administered with Vitamin D3, a derivative, metabolite or analog thereof and the combination is found to increase the anti-tumor effects of the compounds.

[2] = system: cancer stem cells (CSC) derived from four glioblastoma patients; test: Cytotoxicity in cancer stem cells from glioblastoma patients; type: cell-based, human; conditions: for Cytotoxicity EC50, Mean ± SD: mean of CSCs from four glioblastoma patients
Protocol: Tissue samples from high grade gliomas WHO grade IV from newly diagnosed patients (medium age of 54±10 years) were minced mechanically, digested enzymatically and the dissociated cells were filtered. The isolated tumor cells were cultured as bulk cells. Cancer Stem Cells (CSCs) were isolated by the formation of neurospheres under neurosphere conditions (using neurobasal medium) from the murine SMA 560 glioma cell line or from freshly isolated human glioblastoma cells.
The number of remaining adherent cells were stained (crystal violet or Alamar Blue) and quantified by absorbance measurements (540 nm). Cell survival was expressed as the percentage of cells surviving relative to the number of cells surviving in untreated control cultures. The results are given as % killing rate or EC50 as the dose required for half-maximal cytotoxicity. Results
CSCs were isolated from glioblastoma tissue resected from four patients. […].

[3] = Half-life in human fresh blood in vitro by GC; type: in vitro ADME; conditions: same test, human blood
[4] = Toxicity in mice during the tumor study; conditions: 500 mg/kg i.p. on alternating days
Protocol: 1×10^7 tumor cells (PancTu-I and MiaPaca 2) were injected subcutaneously into the flank.
Tumors were grown to a size of 200 mm^3 before the treatment was started. Mice were treated on alternating days with 500 mg/kg*body weight (BW).

[5] = system: MiaPaca2 tumor; test: MiaPaca2 subcutaneous tumor model in nude mice; type: in vivo, nude mice (NMRI-Foxn1 nu/nu); conditions: 500 mg/kg i.p. on alternating days
[6] = system: human glioma cell line LN-229; test: Cytotoxicity assay in LN-229 cells (crystal violet); type: cell-based; conditions: for OD (absorbance at 540 nm; high values = high cell viability): 24 h
Protocol: Cell lines: The human glioma cell line LN-229 was used as described previously (Rodak et al. 2005) as well as the human colon adenocarcinoma cell line SW480.
Cytotoxicity assay: Dissociated LN-229 cells were seeded into 96-well plates at a density of 10^4 cells per well in 100 μl of culture medium. […] Triplicate cultures were prepared for each sample. After 24 h of incubation at […], the remaining adherent viable cells were stained using crystal violet as described (Rodack et al. 2005). Cell viability was determined by measuring the absorbancy at 540 nm. The results are expressed as killing rate given by the difference between 100% of cells and percentage of cells surviving. EC50 values correspond to the concentration inducing 50% cell death.

[7] = system: pancreatic primary tumors (Bo 70); test: Xenograft model of pancreatic primary tumors Bo 70; type: in vivo; conditions: Bo 70, observed for 23 days
Source text: (§1) However, the differences in tumor volumes were not statistically relevant, likely due to the short duration of the study and the slow growth rate of the tumors.

[8] = system: murine SMA560 glioma cancer stem cells (CSC); conditions: for sensitivity of CSCs versus corresponding glioma bulk cells, based on EC50: mouse SMA 560 CSCs vs bulk cells
Source text: (§2) The mouse SMA560 glioma cell line was used to provide tumor bulk cells and CSCs. […] Mouse CSCs were generated from the SMA560 glioma cell line and cultured for 7 days.

[9] = system: pancreatic primary tumors (Bo 73); test: Xenograft model of pancreatic primary tumors Bo 73; type: in vivo; conditions: Bo 73, observed for 15 days; differences not statistically relevant
Source text: as §1

[10] = system: tumor stem cells; test: Killing of tumor stem cells in tissue culture in vitro; type: cell-based
[11] = system: PancTu I tumor; test: PancTu I subcutaneous tumor model in nude mice; type: in vivo, nude mice (NMRI-Foxn1 nu/nu); conditions: 500 mg/kg i.p. on alternating days
[12] = system: multicellular pancreatic tumor (Panc Tul or BxPC-3) spheroids; test: Pancreatic stem cell-like multicellular spheroid toxicity assay; type: cell-based; conditions: taurolidine 500 μM, compound 2250 1000 μM, 48 hours
Source text: Multicellular spheroids are composed of tumor cells growing in a 3-dimensional structure stimulating the growth, micro-environmental conditions and stem cell-like characteristics of real tumors. The multicellular tumor spheroid (MCTS) model compensates for many of the deficiencies seen in monolayer cultures. Spheroids on the scale of 200-500 μm develop chemical gradients of oxygen, nutrients, and catabolites, while having morphological and functional features similar to tumors. Therefore, assays utilizing the MCTS model allow for the assessment of drug penetration and are more predictive of in vivo success compared with monolayer cultures. MCTS assays are a tumor model system of intermediate complexity between standard monolayer and tumors in vivo.
Pancreatic tumor cells (Panc Tu-1, BxPC-3, Mia Paca-2, ASPC1) and pancreatic primary tumor cells (Bo80) were seeded in ultra-low adhesion plates in special stem cell media.
Pancreatic tumor cells (ASPC1, Mia Paca-2, Panc Tul, BxPC-3) and pancreatic primary tumor cells (Bo80) were raised in monolayer culture before seeding in ultra low adhesion plates under conditions of special stem cell media to form multicellular spheroids and passed through a cell strainer to exclude aggregates. […]

[13] = system: human glioblastoma bulk cells; conditions: Rodak et al., J. Neurosurg., 102, 1055-68, 2005; cited from earlier work
[14] = system: murine SMA 560 bulk glioma cells; conditions: SMA 560 bulk cells, 24 h and 48 h incubation
Source text: as §2

[15] = Portnow et al., Clin Cancer Res 15, 7092-7098, 2009; cited from earlier work

## O=S1(=O)CCNCO1 [A1]
[1]
  effectiveness in treating cancers in patients: effective in treating such cancers
  safety for use in patients: safe for use in patients

## O=S1(=O)CCOCO1 [A3]
[1]
  effectiveness in treating cancers in patients: effective in treating such cancers
  safety for use in patients: safe for use in patients

## O=S1(=O)CCN(CN2COCCS2(=O)=O)CN1 [B1]
[1]
  effectiveness in treating cancers in patients: effective in treating such cancers
  safety for use in patients: safe for use in patients

## O=S1(=O)CCN(CN2CCS(=O)(=O)OC2)CN1 [B2]
[1]
  effectiveness in treating cancers in patients: effective in treating such cancers
  safety for use in patients: safe for use in patients

## O=S1(=O)CCN(CN2CCS(=O)(=O)OC2)CO1 [B3]
[1]
  effectiveness in treating cancers in patients: effective in treating such cancers
  safety for use in patients: safe for use in patients

## O=S1(=O)CCOCN1CN1COCCS1(=O)=O [compound 2245]
[1]
  effectiveness in treating cancers in patients: effective in treating such cancers
  safety for use in patients: safe for use in patients

## CN1COCCS1(=O)=O [compound 2255]
[1]
  effectiveness in treating cancers in patients: effective in treating such cancers
  safety for use in patients: safe for use in patients

## O=S1(=O)CCN(CN2CCS(=O)(=O)NC2)CN1 [taurolidine]
[2]; Homo sapiens, 24 h, read-out: Cytotoxicity EC50 (μg/ml) 24 h, CSC GBM #4, 24 h
  EC50: 12.5 µg/mL
[2]; Homo sapiens, 24 h, read-out: Cytotoxicity EC50 (μg/ml) 24 h, CSC GBM #5, 24 h
  EC50: 14 µg/mL
[2]; Homo sapiens, 24 h, read-out: Cytotoxicity EC50, Mean ± SD, mean of CSCs from four glioblastoma patients, 24 h
  EC50: 13 ± 2 µg/mL
[2]; Homo sapiens, GBM3, 24 h, read-out: Cytotoxicity EC50 (μg/ml) 24 h, CSC GBM #3, 24 h
  EC50: 15 µg/mL
[2]; Homo sapiens, GBM6, 24 h, read-out: Cytotoxicity EC50 (μg/ml) 24 h, CSC GBM #6, 24 h
  EC50: 10 µg/mL
[3]
  half-life: ~30 min
[4]
  toxic effect on the mice during the study: no toxic effect
[5]
  decrease of MiaPaca2 tumor volume compared to control: about 2 fold
[6]; 4 μg/ml
  OD (absorbance at 540 nm; high values = high cell viability): 1.530
[6]; 8 μg/ml
  OD (absorbance at 540 nm; high values = high cell viability): 1.478
[6]; 15.5 μg/ml
  OD (absorbance at 540 nm; high values = high cell viability): 1.434
[6]; 31 μg/ml
  OD (absorbance at 540 nm; high values = high cell viability): 1.132
[6]; 62.5 μg/ml
  OD (absorbance at 540 nm; high values = high cell viability): 0.317
[6]; 250 μg/ml
  OD (absorbance at 540 nm; high values = high cell viability): 0.165
[6]; 500 μg/ml
  OD (absorbance at 540 nm; high values = high cell viability): 0.098
[6]; 1000 μg/ml
  OD (absorbance at 540 nm; high values = high cell viability): 0.109
[6]; Homo sapiens, LN-229, 24 h, LN-229 cells, 24 h incubation, read-out: EC50 (concentration inducing 50% cell death)
  EC50: 45 µg/mL (≈ 158 µM)
[6]; LN-229 cells, 24 h incubation
  EC50 (concentration inducing 50% cell death): 50 µg/mL (≈ 176 µM)
[7]
  tumor volume compared to control: significantly reduce tumor volume compared to control
[8]
  sensitivity of CSCs versus corresponding glioma bulk cells, based on EC50: about 3 fold
[9]
  relative tumor volume compared to control: slightly reduced relative tumor volume compared to control
[10]
  concentration effective at killing tumor stem cells: 0.01 µg/mL
[11]
  decrease of PancTu I tumor volume compared to control: about 3 fold
[12]
  effect on pancreatic stem cell like multicellular spheroid cultures: antineoplastic effect
[13]
  EC50: ~50 µg/mL (≈ 176 µM)

## O=S1(=O)CCNCN1 [taurultam]
[2]; CSC GBM #3, 24 h
  Cytotoxicity EC50 (μg/ml) 24 h: 10.5 µg/mL
[2]; CSC GBM #4, 24 h
  Cytotoxicity EC50 (μg/ml) 24 h: 12.5 µg/mL
[2]; CSC GBM #5, 24 h
  Cytotoxicity EC50 (μg/ml) 24 h: 11 µg/mL
[2]; CSC GBM #6, 24 h
  Cytotoxicity EC50 (μg/ml) 24 h: 9 µg/mL
[2]; 24 h
  Cytotoxicity EC50, Mean ± SD: 11 ± 1.4 µg/mL
[2]; 24 h, listed as Taurultam
  Cytotoxicity EC50, Mean ± SD: 11 ± 1.4 µg/mL
[8]
  sensitivity of CSCs versus corresponding glioma bulk cells, based on EC50: ~2 fold
[8]; murine CSCs cultured 7 days, 24 hours treatment
  Cytotoxicity EC50: 10 µg/mL
[14]
  Cytotoxicity EC50: 19.3 µg/mL
[13]
  EC50: ~50 µg/mL (≈ 367 µM)

## Cn1nnc2c(C(N)=O)ncn2c1=O [temozolamide]
[2]; CSC GBM #3, 24 h
  Cytotoxicity EC50 (μg/ml) 24 h: 84.4 µg/mL
[2]; CSC GBM #3, 24 h, read-out: Cytotoxicity EC50 24 h
  EC50: 435 µM
[2]; CSC GBM #4, 24 h
  Cytotoxicity EC50 (μg/ml) 24 h: 97 µg/mL
[2]; CSC GBM #4, 24 h, read-out: Cytotoxicity EC50 24 h
  EC50: 500 µM
[2]; CSC GBM #5, 24 h
  Cytotoxicity EC50 (μg/ml) 24 h: 48.5 µg/mL
[2]; CSC GBM #5, 24 h, read-out: Cytotoxicity EC50 24 h
  EC50: 250 µM
[2]; CSC GBM #6, 24 h
  Cytotoxicity EC50 (μg/ml) 24 h: 44 µg/mL
[2]; CSC GBM #6, 24 h, read-out: Cytotoxicity EC50 24 h
  EC50: 230 µM
[2]; 24 h
  Cytotoxicity EC50, Mean ± SD: 68.5 ± 26 µg/mL
[15]
  peak plasma levels measured in patients: 13.7 µg/mL
